Experiments:
EGFR L858R = EGFR L858R (Homo sapiens (Human), UniProt P00533, L858R); assay: Biochemical EGFR inhibition assay, EGFR L858R; settings: Caliper mobility shift; 1.0 mM ATP or ATP Km; read-out: Enz EGFR_L858R IC50
[1] = molecular target: pEGFR (Tyr1068) in PC-9 cells (Ex19Del) (Homo sapiens (Human), UniProt P00533, DEL746-750); assay: PC-9 pEGFR AlphaLISA assay; type: cell-based; settings: 4 hours incubation, p-EGFR (Tyr1068) AlphaLISA, read-out: Ext pEGFR_PC-9 Ex19Del IC50
Outline: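 Readout: AlphaLISA SureFire Ultra signal in cell lysates, with acceptor beads for 1.5-2 h and donor beads overnight at room temperature in the dark. Beforehand, unstimulated cells in 10% FBS medium received compounds (10 points, 4-fold steps) for 4 h at 37° C. IC50 came from percent inhibition curves.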

EGFR (d746-750) = EGFR (d746-750) (Homo sapiens (Human), UniProt P00533, DEL746-750); assay: Biochemical EGFR inhibition assay, EGFR (d746-750); settings: Caliper mobility shift; 1.0 mM ATP or ATP Km; read-out: Enz EGFR_Exon19-del746-750 IC50
Chain of EGFR (d746-750) (P00533 other isoform, or with tags, fused parts or gaps del 1-694/del 746-750 limits assumed): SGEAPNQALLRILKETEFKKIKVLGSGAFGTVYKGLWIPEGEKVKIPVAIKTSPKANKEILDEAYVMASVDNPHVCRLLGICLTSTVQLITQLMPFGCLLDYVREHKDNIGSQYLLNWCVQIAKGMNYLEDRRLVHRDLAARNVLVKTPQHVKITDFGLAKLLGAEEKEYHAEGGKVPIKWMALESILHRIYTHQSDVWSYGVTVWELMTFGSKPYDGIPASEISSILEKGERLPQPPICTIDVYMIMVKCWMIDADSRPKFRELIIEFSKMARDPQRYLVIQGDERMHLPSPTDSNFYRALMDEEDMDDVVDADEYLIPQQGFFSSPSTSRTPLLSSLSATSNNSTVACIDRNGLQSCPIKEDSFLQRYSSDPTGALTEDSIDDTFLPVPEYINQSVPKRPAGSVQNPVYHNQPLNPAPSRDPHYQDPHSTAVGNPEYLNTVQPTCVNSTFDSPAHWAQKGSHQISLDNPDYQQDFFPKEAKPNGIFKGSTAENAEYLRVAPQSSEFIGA

Chain of pEGFR (Tyr1068) in PC-9 cells (Ex19Del) (P00533 other isoform, or with tags, fused parts or gaps del 746-750): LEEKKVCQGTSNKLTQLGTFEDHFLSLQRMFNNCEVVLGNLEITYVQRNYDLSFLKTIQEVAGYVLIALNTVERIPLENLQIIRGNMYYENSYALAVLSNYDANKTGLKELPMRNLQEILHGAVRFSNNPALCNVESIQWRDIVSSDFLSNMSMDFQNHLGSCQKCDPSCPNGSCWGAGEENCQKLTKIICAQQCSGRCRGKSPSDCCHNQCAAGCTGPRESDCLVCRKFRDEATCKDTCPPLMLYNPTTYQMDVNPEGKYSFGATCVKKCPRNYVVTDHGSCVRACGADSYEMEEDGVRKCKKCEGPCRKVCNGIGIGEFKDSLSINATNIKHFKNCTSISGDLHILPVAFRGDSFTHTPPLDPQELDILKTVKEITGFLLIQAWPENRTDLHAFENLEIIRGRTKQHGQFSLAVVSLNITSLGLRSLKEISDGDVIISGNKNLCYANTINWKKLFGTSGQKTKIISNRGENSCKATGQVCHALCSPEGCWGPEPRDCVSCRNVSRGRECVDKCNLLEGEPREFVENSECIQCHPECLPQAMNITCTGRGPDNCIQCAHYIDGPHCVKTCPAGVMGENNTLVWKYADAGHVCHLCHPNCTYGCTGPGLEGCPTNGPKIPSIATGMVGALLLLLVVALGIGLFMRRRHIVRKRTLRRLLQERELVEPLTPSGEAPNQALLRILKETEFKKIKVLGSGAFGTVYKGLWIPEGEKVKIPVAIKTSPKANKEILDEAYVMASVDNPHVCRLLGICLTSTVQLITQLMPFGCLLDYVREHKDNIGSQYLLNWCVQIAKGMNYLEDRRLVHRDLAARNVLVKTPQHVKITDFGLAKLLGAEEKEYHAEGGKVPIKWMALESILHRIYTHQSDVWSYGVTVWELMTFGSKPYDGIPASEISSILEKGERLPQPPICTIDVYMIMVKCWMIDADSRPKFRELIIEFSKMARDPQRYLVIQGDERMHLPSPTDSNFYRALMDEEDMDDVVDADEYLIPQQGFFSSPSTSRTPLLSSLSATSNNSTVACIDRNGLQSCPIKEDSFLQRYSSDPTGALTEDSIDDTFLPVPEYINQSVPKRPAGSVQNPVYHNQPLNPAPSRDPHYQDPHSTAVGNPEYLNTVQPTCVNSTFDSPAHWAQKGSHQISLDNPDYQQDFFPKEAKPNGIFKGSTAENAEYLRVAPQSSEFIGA
Chain of EGFR L858R (P00533 25-1210 L858R): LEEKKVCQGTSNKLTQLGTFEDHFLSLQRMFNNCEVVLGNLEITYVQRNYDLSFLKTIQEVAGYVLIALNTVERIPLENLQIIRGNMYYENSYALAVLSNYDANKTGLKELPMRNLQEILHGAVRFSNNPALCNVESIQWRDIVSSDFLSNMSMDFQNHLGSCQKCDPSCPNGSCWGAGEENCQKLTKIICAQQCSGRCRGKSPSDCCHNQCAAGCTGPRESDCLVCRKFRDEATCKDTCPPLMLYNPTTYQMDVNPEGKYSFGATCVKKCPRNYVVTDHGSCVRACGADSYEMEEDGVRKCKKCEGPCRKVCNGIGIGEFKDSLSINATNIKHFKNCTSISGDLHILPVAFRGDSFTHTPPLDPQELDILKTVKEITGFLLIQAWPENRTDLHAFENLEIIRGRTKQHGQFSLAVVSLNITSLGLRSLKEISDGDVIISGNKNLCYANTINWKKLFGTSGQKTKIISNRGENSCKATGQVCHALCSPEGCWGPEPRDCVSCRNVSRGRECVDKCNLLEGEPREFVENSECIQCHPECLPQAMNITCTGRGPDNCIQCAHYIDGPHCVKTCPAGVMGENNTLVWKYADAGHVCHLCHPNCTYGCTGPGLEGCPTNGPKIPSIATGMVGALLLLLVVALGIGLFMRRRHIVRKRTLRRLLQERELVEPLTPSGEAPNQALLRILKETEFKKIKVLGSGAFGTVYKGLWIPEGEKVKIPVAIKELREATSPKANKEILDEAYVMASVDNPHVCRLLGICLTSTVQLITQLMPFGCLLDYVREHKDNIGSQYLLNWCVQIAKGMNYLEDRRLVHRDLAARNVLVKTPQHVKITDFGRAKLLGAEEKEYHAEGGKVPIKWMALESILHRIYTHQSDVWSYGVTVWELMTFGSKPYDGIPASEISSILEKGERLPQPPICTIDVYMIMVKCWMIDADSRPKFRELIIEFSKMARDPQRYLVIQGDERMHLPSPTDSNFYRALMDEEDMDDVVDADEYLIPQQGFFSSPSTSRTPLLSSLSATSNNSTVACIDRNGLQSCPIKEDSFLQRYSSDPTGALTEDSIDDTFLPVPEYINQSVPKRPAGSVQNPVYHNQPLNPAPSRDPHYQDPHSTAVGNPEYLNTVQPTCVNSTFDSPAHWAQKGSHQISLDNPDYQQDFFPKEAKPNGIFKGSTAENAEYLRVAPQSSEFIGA

SMILES	IC50 (EGFR L858R) [nM]	IC50 [1] [nM]	IC50 (EGFR (d746-750)) [nM]
COc1cc2ncnc(-c3cnn(CC(F)F)c3-c3ccc(F)cc3)c2cc1C1(O)CC1 [Example 490]	82	836	237
CCC(=O)Nc1cc2c(-c3cn(C4CCOCC4)nc3-c3ccccc3)ncnc2cc1OC [Example 248, N-(7-methoxy-4-(3-phenyl-1-(tetrahydro-2H-pyran-4-yl)-1H-pyrazol-4-yl)quinazolin-6-yl)propionamide]	2	1.3	1.5
COc1cc2ncnc(-c3cn(C)nc3-c3ccccc3)c2cc1NC(=O)c1ccc(C2CC2)nc1 [Example 229, 6-cyclopropyl-N-(7-methoxy-4-(1-methyl-3-phenyl-1H-pyrazol-4-yl)quinazolin-6-yl) nicotinamide]	3.5	3.7	1.7
COc1cc2ncnc(-c3cn(C)nc3-c3ccccc3)c2cc1OC(=O)N1[C@@H](C)CN(C)C[C@@H]1C [Example 79, 7-methoxy-4-(1-methyl-3-phenyl-1H-pyrazol-4-yl)quinazolin-6-yl (2S,6S)-2,4,6-trimethylpiperazine-1-carboxylate]	6.5	9.6	3.1
COc1cc2ncnc(-c3cn(C)nc3-c3ccccc3)c2cc1NC(=O)c1cncc(C)c1 [Example 321, N-(7-methoxy-4-(1-methyl-3-phenyl-1H-pyrazol-4-yl)quinazolin-6-yl)-5-methylnicotinamide]	5.2	5.3	2.7
CCOc1cc2ncnc(-c3cn(C4CC4)nc3-c3ccccc3)c2cc1[C@H](C)O (single isomer, unassigned) [Example 112, (S)-1-(4-(1-cyclopropyl-3-phenyl-1H-pyrazol-4-yl)-7-ethoxyquinazolin-6-yl)ethan-1-ol or (R)-1-(4-(1-cyclopropyl-3-phenyl-1H-pyrazol-4-yl)-7-ethoxyquinazolin-6-yl)ethan-1-ol]	1.9	3.8	1.2
COc1cc2ncnc(-c3cn(C)nc3-c3ccccc3)c2cc1OC(=O)N1C[C@H](C)OC[C@@H]1C (racemic) [Example 92, cis-rac-7-methoxy-4-(1-methyl-3-phenyl-1H-pyrazol-4-yl)quinazolin-6-yl (2R,5S)-2,5-dimethylmorpholine-4-carboxylate or trans-rac-7-methoxy-4-(1-methyl-3-phenyl-1H-pyrazol-4-yl)quinazolin-6-yl (2S,5S)-2,5-dimethylmorpholine-4-carboxylate]	9.3	13.4	3.4
COc1cc2ncnc(-c3cn(C)nc3-c3ccccc3)c2cc1NC(=O)c1cnn(C(F)(F)F)c1C [Example 234, N-(7-methoxy-4-(1-methyl-3-phenyl-1H-pyrazol-4-yl)quinazolin-6-yl)-5-methyl-1-(trifluoromethyl)-1H-pyrazole-4-carboxamide]	1.9	2.8	1.1
CN1CC[C@@H](Oc2cc3c(-c4cn(C)nc4-c4ccccc4)ncnc3cc2OC(F)F)[C@H](F)C1 [Example 475, 7-(difluoromethoxy)-6-{[(3R,4R)-3-fluoro-1-methylpiperidin-4-yl]oxy}-4-(1-methyl-3-phenyl-1H-pyrazol-4-yl)quinazoline]	65.5	71.6	21
CCn1cc(-c2ncnc3cc(OC(F)F)c(NC(=O)C4CC4)cc23)c(-c2ccccc2)n1 [Example 302, N-(7-(difluoromethoxy)-4-(1-ethyl-3-phenyl-1H-pyrazol-4-yl)quinazolin-6-yl)cyclopropanecarboxamide]	1.4	1.6	0.7
CCc1ccc(-c2cc3c(-c4cn(C)nc4-c4ccccc4)ncnc3cc2OC)c2c[nH]nc12 [Example 472, 6-(7-ethyl-2H-indazol-4-yl)-7-methoxy-4-(1-methyl-3-phenyl-1H-pyrazol-4-yl)quinazoline]	7.6	2.7	1.9
C[C@H](O)c1cc2c(-c3cn(CC(F)F)nc3-c3ccccc3)ncnc2cc1-c1cnn(C)c1 (single isomer, unassigned) [Example 446, (S)-1-(4-(1-(2,2-difluoroethyl)-3-phenyl-1H-pyrazol-4-yl)-7-(1-methyl-1H-pyrazol-4-yl)quinazolin-6-yl)ethan-1-ol or (R)-1-(4-(1-(2,2-difluoroethyl)-3-phenyl-1H-pyrazol-4-yl)-7-(1-methyl-1H-pyrazol-4-yl)quinazolin-6-yl)ethan-1-ol]	0.9	0.7	0.6
COc1cc2ncnc(-c3cn(C)nc3-c3ccccc3)c2cc1NC(=O)N1C[C@@H](C)OC[C@@H]1C [Example 183, (2R,5S)-N-(7-methoxy-4-(1-methyl-3-phenyl-1H-pyrazol-4-yl)quinazolin-6-yl)-2,5-dimethylmorpholine-4-carboxamide]	8	10.7	3.6

Next, values leading:

IC50 (EGFR L858R) [nM]	IC50 [1] [nM]	IC50 (EGFR (d746-750)) [nM]	SMILES
2.5	0.8	0.7	CCOc1cc2ncnc(-c3cn(C)nc3-c3ccccc3)c2nc1NC(=O)[C@]12COC[C@H]1C2 (single isomer, unassigned) [Example 379, (1S,5S)—N-(7-ethoxy-4-(1-methyl-3-phenyl-1H-pyrazol-4-yl)pyrido[3,2-d]pyrimidin-6-yl)-3-oxabicyclo[3.1.0]hexane-1-carboxamide or (1R,5R)—N-(7-ethoxy-4-(1-methyl-3-phenyl-1H-pyrazol-4-yl)pyrido[3,2-d]pyrimidin-6-yl)-3-oxabicyclo[3.1.0]hexane-1-carboxamide]
2.5	1.4	0.7	CCOc1cc2ncnc(-c3cn(C)nc3-c3ccccc3)c2nc1NC(=O)[C@@]12COC[C@@H]1C2 (single isomer, unassigned) [Example 380, (1R,5R)—N-(7-ethoxy-4-(1-methyl-3-phenyl-1H-pyrazol-4-yl)pyrido[3,2-d]pyrimidin-6-yl)-3-oxabicyclo[3.1.0]hexane-1-carboxamide or (1S,5S)—N-(7-ethoxy-4-(1-methyl-3-phenyl-1H-pyrazol-4-yl)pyrido[3,2-d]pyrimidin-6-yl)-3-oxabicyclo[3.1.0]hexane-1-carboxamide]
1.3	1.2	0.7	CCOc1cc2ncnc(-c3cn(C)nc3-c3ccccc3)c2nc1NC(=O)[C@]12C[C@H]1CN(C)C2 (single isomer, unassigned) [Example 378, (1R,5R)—N-(7-ethoxy-4-(1-methyl-3-phenyl-1H-pyrazol-4-yl)pyrido[3,2-d]pyrimidin-6-yl)-3-methyl-3-azabicyclo[3.1.0]hexane-1-carboxamide or (1S,5S)—N-(7-ethoxy-4-(1-methyl-3-phenyl-1H-pyrazol-4-yl)pyrido[3,2-d]pyrimidin-6-yl)-3-methyl-3-azabicyclo[3.1.0]hexane-1-carboxamide]
1.4	1.4	0.8	COc1cc2ncnc(-c3cn(C)nc3-c3ccccc3F)c2nc1NC(=O)C1(C(F)F)CC1 [Example 366, 1-(difluoromethyl)-N-(4-(3-(2-fluorophenyl)-1-methyl-1H-pyrazol-4-y1)-7-methoxypyrido[3,2-d]pyrimidin-6-yl)cyclopropane-1-carboxamide]
0.8	1.3	0.4	CCc1nc2c(-c3cn(C)nc3-c3ccccc3)ncnc2cc1OC [Example 136, 6-ethyl-7-methoxy-4-(1-methyl-3-phenyl-1H-pyrazol-4-yl)pyrido[3,2-d]pyrimidine]
4.2	1.5	2.9	COc1cc2ncnc(-c3cn(C)nc3-c3ccccc3)c2nc1O[C@H](C)c1cocn1 [Example 40, (R)-4-(1-((7-methoxy-4-(1-methyl-3-phenyl-1H-pyrazol-4-yl)pyrido[3,2-d]pyrimidin-6-yl)oxy)ethyl) oxazole]
10.4	10.4	5.1	COc1cc2ncnc(-c3cn(C)nc3-c3ccccc3)c2cc1NC(=O)c1cncc(F)c1 [Example 327, 5-fluoro-N-(7-methoxy-4-(1-methyl-3-phenyl-1H-pyrazol-4-yl)quinazolin-6-yl)nicotinamide]
1.4	1.2	0.6	COc1cc2ncnc(-c3cn(C)nc3-c3ccccc3)c2nc1NC(=O)[C@@]12COC[C@@H]1C2 (single isomer, unassigned) [Example 431, (1R,5R)—N-(7-methoxy-4-(1-methyl-3-phenyl-1H-pyrazol-4-yl)pyrido[3,2-d]pyrimidin-6-yl)-3-oxabicyclo[3.1.0]hexane-1-carboxamide or (1S,5S)—N-(7-methoxy-4-(1-methyl-3-phenyl-1H-pyrazol-4-yl)pyrido[3,2-d]pyrimidin-6-yl)-3-oxabicyclo[3.1.0]hexane-1-carboxamide]
1.4	1.1	0.8	CCn1cc(-c2ncnc3cc(OC)c(NC(=O)c4cnn(C(F)(F)F)c4)nc23)c(-c2ccccc2)n1 [Example 314, N-(4-(1-ethyl-3-phenyl-1H-pyrazol-4-yl)-7-methoxypyrido[3,2-d]pyrimidin-6-yl)-1-(trifluoromethyl)-1H-pyrazole-4-carboxamide]
4.8	11.3	1.9	COc1cc2ncnc(-c3cn(C)nc3-c3ccccc3)c2nc1OC(C)c1nnnn1C (stereo not drawn) [Example 29, 7-methoxy-6-(1-(1-methyl-1H-tetrazol-5-yl)ethoxy)-4-(1-methyl-3-phenyl-1H-pyrazol-4-yl)pyrido[3,2-d]pyrimidine]

From patent US20250236608A1, “EGFR INHIBITORS” (Blueprint Medicines Corporation, priority 2022, published 2025)
